From patent publication US11512111B2, “Yeats inhibitors and methods of use thereof” (The University of Hong Kong, priority 2017, dated 2022)
Residues, ends and D or L forms follow the SMILES beside them. *: point of attachment. Oxazole(5-CO) = O=C(c1cnco1)*

What was measured:
[1] = target: T1, AF9 YEATS domain (Homo sapiens, UniProt P42568); assay: Photo-cross-linking-based competition assay (photoaffinity probe, click chemistry, in-gel fluorescence); type: binding; settings: for IC50: competition with photoaffinity probe, in-gel fluorescence
T1 construct: His-AF9 (1-138); His (N); made in house; host or cells: E. coli Rosetta
T1 sequence (P42568 1-138): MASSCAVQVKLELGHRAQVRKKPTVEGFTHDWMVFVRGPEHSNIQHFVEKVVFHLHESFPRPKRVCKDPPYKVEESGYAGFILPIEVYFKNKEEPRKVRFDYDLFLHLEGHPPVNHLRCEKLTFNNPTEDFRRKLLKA
Description: Mobile phase used were water with 0.1% trifluoroacetic acid (buffer A) and 90% acetonitrile in water with 0.1% trifluoroacetic acid (buffer B). The purity (>95%) and identity of peptides were confirmed by LC-MS. The inhibitory activities of the inhibitors were determined by a photo-cross-linking-based competition assay. […] The reactions were incubated for 1 h at r.t . . . . The reactions were quenched by adding 5 volumes of ice-cold acetone and placed at −20° C. overnight to precipitate proteins. After protein precipitation, samples were centrifuged at 6000×g for 5 min at 4° C. The supernatant was discarded and the pellet was washed with ice-cooled methanol twice and air-dried for 10 min. […] Samples were then resolved by SDS-PAGE. The labeled proteins were visualized by scanning the gel on a Typhoon 9410 variable mode imager (excitation 532 nm, emission filter 580 nm). A photo-cross-linking based method was used in this study to estimate inhibitory activity (FIG. 28). This method requires the use of a photoaffinity probe. The probe (probe 1 (SEQ ID NO:48), see below) is derived from a crotonylated peptide, ligand of the protein, carrying a photo-cross-linker and a terminal alkyne as bioorthogonal. The YEATS domain is incubated and bound to the probe through Kcr-dependent recognition. Upon UV-irradiation, the photo-cross-linker is activated and rapidly cross-linked to the protein, converting the non-covalent protein-probe interaction into a covalent linkage. The probe-labeled protein is subsequently conjugated to an azide-functionalized fluorescence dye (for example, rhodamine-N3, Rho-N3) via Cu(I)-catalyzed azide-alkyne cycloaddition (CuAAC, or “click” chemistry). After SDS-PAGE, the protein can be visualized by in-gel fluorescence scanning. If photo-cross-linking of the YEATS domain with photoaffinity probe is performed in the presence of an inhibitor, which occupies the Kcr binding pocket of the YEATS domain and thus inhibits the protein-probe interaction, the percentage of the YEATS domain in the sample that is labeled by the probe will be reduced. The in-gel fluorescence intensity detected will also be decreased. By varying the concentration of inhibitor added in the sample and quantifying the resulting fluorescence intensities, a competition curve of the inhibitor toward the protein-probe interaction will be obtained, which can be used to estimate the IC50 value. Due to the covalent nature of photo-cross-linking, weak protein-protein interactions can be captured and eventually visualized. The protein concentration used in the assay can be as low as several nanograms per microliter, while the fluorescence signal can still be robustly detected and quantified.

[2] = target: T2, GAS41 YEATS domain (Homo sapiens, UniProt O95619); assay: Photo-cross-linking-based competition assay; type: binding; settings: competition with photoaffinity probe, in-gel fluorescence
T2 construct: His-Gas41 (15-159); His (N); made in house; host or cells: E. coli Rosetta
Description: (§1) Peptides were synthesized on a Rink-Amide MBHA resin followed by a standard Fmoc-based solid-phase peptide synthesis protocol. After all amino acids were coupled, protecting groups and cleavage of peptides from the resin were done by incubating the resin with a cleavage cocktail containing 95% trifluoroacetic acid, 2.5% triisopropylsilane, 1.5% H2O and, 1% thioanisole for 2 h. Peptides were purified by preparative HPLC with an XBridge Prep OBDTM C18 column (30 mm×250 mm, 10 μm, Waters). Mobile phase used were water with 0.1% trifluoroacetic acid (buffer A) and 90% acetonitrile in water with 0.1% trifluoroacetic acid (buffer B). The purity (>95%) and identity of peptides were confirmed by LC-MS. The inhibitory activities of the inhibitors were determined by a photo-cross-linking-based competition assay.
(§2) The probe 4.1 or 4.2 (2 μM) with indicated concentrations of different inhibitors was incubated with YEATS domain proteins (5 or 20 ng/μL) in binding buffer (50 mM HEPES, 150 mM NaCl, 2 mM MgCl2, 0.1% Tween-20, 20% glycerol, pH 7.5, with or without 50 ng/μL BSA) for 10 min at 4° C. Then, the samples were irradiated at 365 nm using a UV lamp for 20 min in a 96-well plate on ice.
(§3) To the prepared photo-cross-linking samples, 100 μM Rho-N3 (10 mM stock in DMSO) was added, followed by 1 mM TCEP (freshly prepared 50 mM stock in H2O), 100 μM TBTA (10 mM stock in DMSO), and finally the reactions were initiated by the addition of 1 mM CuSO4 (freshly prepared 50 mM stock in H2O). The reactions were incubated for 1 h at r.t . . . . The reactions were quenched by adding 5 volumes of ice-cold acetone and placed at −20° C. overnight to precipitate proteins.
(§4) After protein precipitation, samples were centrifuged at 6000×g for 5 min at 4° C. The supernatant was discarded and the pellet was washed with ice-cooled methanol twice and air-dried for 10 min. The proteins were resuspended in 1×LDS sample loading buffer (Invitrogen) with 50 mM DTT, and heated at 80° C. for 8 min. Samples were then resolved by SDS-PAGE. The labeled proteins were visualized by scanning the gel on a Typhoon 9410 variable mode imager (excitation 532 nm, emission filter 580 nm).
(§5) A photo-cross-linking based method was used in this study to estimate inhibitory activity (FIG. 28). This method requires the use of a photoaffinity probe. The probe (probe 1 (SEQ ID NO:48), see below) is derived from a crotonylated peptide, ligand of the protein, carrying a photo-cross-linker and a terminal alkyne as bioorthogonal.
(§6) The YEATS domain is incubated and bound to the probe through Kcr-dependent recognition. Upon UV-irradiation, the photo-cross-linker is activated and rapidly cross-linked to the protein, converting the non-covalent protein-probe interaction into a covalent linkage. The probe-labeled protein is subsequently conjugated to an azide-functionalized fluorescence dye (for example, rhodamine-N3, Rho-N3) via Cu(I)-catalyzed azide-alkyne cycloaddition (CuAAC, or “click” chemistry). After SDS-PAGE, the protein can be visualized by in-gel fluorescence scanning. If photo-cross-linking of the YEATS domain with photoaffinity probe is performed in the presence of an inhibitor, which occupies the Kcr binding pocket of the YEATS domain and thus inhibits the protein-probe interaction, the percentage of the YEATS domain in the sample that is labeled by the probe will be reduced. The in-gel fluorescence intensity detected will also be decreased. By varying the concentration of inhibitor added in the sample and quantifying the resulting fluorescence intensities, a competition curve of the inhibitor toward the protein-probe interaction will be obtained, which can be used to estimate the IC50 value. Due to the covalent nature of photo-cross-linking, weak protein-protein interactions can be captured and eventually visualized. The protein concentration used in the assay can be as low as several nanograms per microliter, while the fluorescence signal can still be robustly detected and quantified. […]

[3] = target: T3, YEATS2 domain (Homo sapiens, UniProt Q9ULM3); assay: Photo-cross-linking-based competition assay; type: binding; settings: competition with photoaffinity probe, in-gel fluorescence
T3 construct: His-SUMO-YEATS2 (201-332); His (N); SUMO (N); made in house; host or cells: E. coli Rosetta
T3 sequence (Q9ULM3 201-332): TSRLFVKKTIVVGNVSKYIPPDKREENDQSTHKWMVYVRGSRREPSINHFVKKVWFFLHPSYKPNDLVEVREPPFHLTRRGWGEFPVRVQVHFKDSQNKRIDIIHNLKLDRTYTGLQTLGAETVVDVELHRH
Description: as §1, §2, §3, §4, §5, §6

[4] = target: T4, ENL YEATS domain (Homo sapiens, UniProt Q03111); assay: Isothermal titration calorimetry (ITC); type: binding
T4 construct: His-SUMO-ENL (1-138); His (N); SUMO (N); made in house; host or cells: E. coli Rosetta
T4 sequence (Q03111 1-138): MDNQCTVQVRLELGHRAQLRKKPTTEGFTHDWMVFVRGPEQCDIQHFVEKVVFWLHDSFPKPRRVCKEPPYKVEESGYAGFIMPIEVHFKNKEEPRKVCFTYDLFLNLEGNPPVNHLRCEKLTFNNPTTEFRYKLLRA
Description: (§7) ^1H and ^13C NMR spectra were recorded on Bruker UltraShield 400 or 600 MHz spectrometers and were calibrated using residual undeuterated solvent as an internal reference. Chemical shifts were reported in ppm, and coupling constant J was reported in Hz. Peptides were analyzed by LC-MS with an Agilent 1260 Infinity HPLC system connected to a Thermo Finnigan LCQ DecaXP MS detector. Peptides were purified on a preparative HPLC system with Waters 2535 Quaternary Gradient Module, Waters 515 HPLC pump, Waters SFO System Fluidics Organizer, and Waters 2767 Sample Manager. Photo-cross-linking was performed with an ENF-260C/FE hand-hang UV lamp (Spectroline). In-gel fluorescence scanning was performed using a Typhoon 9410 variable mode imager from GE Healthcare Life Sciences (excitation 532 nm, emission 580 nm). Images of Coomassie blue staining were acquired by MyECL Imager from Thermo Scientific. All images were processed by ImageJ software (National Institutes of Health), and contrast was adjusted appropriately. ITC experiments were performed with a MicroCal iTC200 titration calorimeter (MicroCal). IC50 and dissociation constants were fit with Origin 7.0 software package (OriginLab).
The compound Cyclic 3 was also tested with AF9 and ENL YEATS domains.

[5] = target: T1, AF9 YEATS domain; assay: Isothermal titration calorimetry (ITC); type: binding; settings: ITC
Description: as §7
To further validate the reliability of the results obtained from the photo-cross-linking-based competition assay, we performed isothermal titration calorimetry (ITC) to determine the direct binding affinities of the inhibitors toward the AF9 YEATS domain. […] The ITC measurements were in agreement with the IC50 data, indicating the reliability of the results obtained from the photo-cross-linking-based competition assay.

[6] = target: T4, ENL YEATS domain; assay: Photo-cross-linking-based competition assay; type: binding; settings: for IC50: competition with photoaffinity probe, in-gel fluorescence
[7] = target: T5, ENL (Homo sapiens, UniProt Q03111); assay: Cellular thermal shift assay (CETSA) in MOLM-13 (FLAG-ENL) cells; type: cell-based; settings: MOLM13 (FLAG-ENL), 50 μM, 16 hours, anti-FLAG
T5 construct: expressed in transfected cells; host or cells: MOLM-13 (FLAG-ENL) cells
T5 sequence (Q03111 1-559): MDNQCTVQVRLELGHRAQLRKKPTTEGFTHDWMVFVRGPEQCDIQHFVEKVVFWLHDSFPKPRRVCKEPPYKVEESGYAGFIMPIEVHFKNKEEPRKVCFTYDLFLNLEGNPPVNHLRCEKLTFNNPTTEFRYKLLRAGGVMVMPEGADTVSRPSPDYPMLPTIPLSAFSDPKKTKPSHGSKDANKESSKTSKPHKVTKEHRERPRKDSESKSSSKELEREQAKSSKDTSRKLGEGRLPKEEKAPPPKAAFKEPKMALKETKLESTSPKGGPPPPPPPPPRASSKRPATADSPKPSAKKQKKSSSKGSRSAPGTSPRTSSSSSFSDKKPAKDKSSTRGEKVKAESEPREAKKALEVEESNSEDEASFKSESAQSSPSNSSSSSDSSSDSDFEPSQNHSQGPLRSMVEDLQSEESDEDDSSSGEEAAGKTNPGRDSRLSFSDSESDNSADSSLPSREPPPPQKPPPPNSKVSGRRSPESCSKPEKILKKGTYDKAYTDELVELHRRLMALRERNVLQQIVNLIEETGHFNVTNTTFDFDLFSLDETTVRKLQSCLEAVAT
Description: We next applied the cellular thermal shift assay (CETSA) to examine if XL-13m was cell permeable and could target ENL in living cells. MOLM-13 (FLAG-ENL) were treated with XL-13m for […] and then heated at different temperature to denature and precipitate proteins. […] Soluble proteins were extracted by freeze-thaw cycle and subjected to western blotting analysis.
MOLM13 (FLAG-ENL) cells were incubated with or without 50 μM compound for 16 hours and then were collected for cellular thermal shift assay (CETSA) as previously reported. Anti-FLAG antibody was used to detect ENL proteins and γ-actin blotting served as negative control.

T2 sequence (O95619 15-159): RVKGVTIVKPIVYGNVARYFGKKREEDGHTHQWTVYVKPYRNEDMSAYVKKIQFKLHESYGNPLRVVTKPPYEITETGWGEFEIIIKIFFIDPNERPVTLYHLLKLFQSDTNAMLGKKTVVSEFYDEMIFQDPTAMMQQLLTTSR

Row | Structure (SMILES) | IC50 [1] | IC50 [2] | IC50 [3] | Kd [4] | Kd [5] | IC50 [6] | activity drop on ENL compared to AF9 ([6]; ratio of IC50 values) | activity on AF9 weaker than on ENL ([1]; ratio of IC50 values) | thermal shift: targeting of ENL protein in living cells [7]
1 | C[C@H](NC(=O)[C@@H](NC(=O)[C@H](CCC(N)=O)NC(=O)OCc1ccccc1)[C@@H](C)O)C(=O)N[C@@H](CCCNC(=N)N)C(=O)N[C@@H](CCCCNC(=O)c1cnco1)C(N)=O [Compound 27] | 0.24 µM | 14.5 µM | 98.7 µM |  |  |  |  |  | 
2 | C[C@@H]1NC(=O)[C@H]([C@H](C)O)NC(=O)[C@@H](NC(=O)OCc2ccccc2)CCCCNC(=N)NCCC[C@H](C(=O)N[C@@H](CCCCNC(=O)c2cnco2)C(N)=O)NC1=O [Compound 80] |  | 53.7 µM | 22.7 µM | 11.4 µM | 0.52 µM | 12.9 µM |  |  | 
3 | C[C@H](NC(=O)[C@@H](NC(=O)[C@H](CCC(N)=O)NC(=O)OCc1ccccc1)[C@@H](C)O)C(=O)N[C@@H](CCCNC(=N)N)C(=O)N[C@@H](CCCCNC(=O)c1ccco1)C(N)=O [Compound 26] | 0.26 µM | 123 µM | 42.4 µM |  |  | 1.3 µM | 5 fold |  | 
4 | CC(=O)N[C@@H](C)C(=O)N[C@@H](C)C(=O)N[C@@H](CCCNC(=N)N)C(=O)N[C@@H](CCCCNC(=O)c1cnco1)C(N)=O [Compound 40] (Ac-AARK(Oxazole(5-CO))-NH2) |  |  |  |  |  |  |  | 6.1 fold | revealed the target of ENL protein
5 | C[C@@H]1NC(=O)[C@H]([C@H](C)O)NC(=O)[C@@H](NC(=O)OCc2ccccc2)CCCCNC(=N)NCCC[C@H](C(=O)N[C@@H](CCCCNC(=O)c2ccco2)C(N)=O)NC1=O [Compound 78] | 1.8 µM |  |  |  |  | 43.6 µM |  |  | 
